Test results as given in patent publication US9717772B2, “Interval therapy for the treatment of loss of eyesight in humans with glaucoma and other degenerative eye diseases” (Ramot at Tel-Aviv University Ltd., priority 2012, dated 2017).
Non-standard residues stand in square brackets, D forms with d. Residues, ends and D or L forms follow the SMILES beside them. Aib = CC(C)(N)C(=O)O

How the values were obtained:
[1] = system: CA1 region of the hippocampus (Aβ1-42 inhibition of LTP); test: Long-term potentiation (LTP) of fEPSPs in hippocampal slices after Aβ1-42 aggregated with or without D-Trp-Aib; format: cell-based, mice; details: Aβ1-42 50 nM aggregated under serial dilution conditions without D-Trp-Aib
Method: Aβ1-42 (order number 62-0-80, batch Y11042T1, American Peptide Company, Sunnyvale, Calif. 94086, U.S.A.) is suspended in 100% HFIP (Sigma Aldrich) to approximately 1 mg/ml (2 mg dissolved in 2 ml HFIP) and shaken at 37° C. for 1.5 hours in tightly sealed Eppendorf vials. This is allowed to cool to room temperature and then the solution is portioned into aliquots and the HFIP removed by evaporation using a Speedvac for approximately 30 minutes. When dry, the Aβ1-42 is stored at −20° C. The Aβ1-42 is dissolved in anhydrous DMSO (Sigma Aldrich) to a concentration of 100 fold that required in PBS (i.e. 10 mM for 100 μM) with the aid of an ultrasonic water bath with/without D-Trp-Aib (SEQ ID NO. 30) (i.e. for a 10:1 ratio with D-Trp-Aib (SEQ ID NO. 30) 100 mM for 10 mM Aβ1-42). This solution is then immediately diluted in PBS to a final concentration of 100 μM Aβ in 1% DMSO. These solutions are allowed to aggregate at room temperature for various times (e.g. 1 hour, 1 day, 1 week) before being used. […]
Extracellular recordings of field excitatory postsynaptic potentials (fEPSPs) are obtained from the dendritic region of the CA1 region of the hippocampus using glass micropipettes (1-2 MW) filled with superfusion solution. […] Amplified fEPSPs and NMDA-EPSCs are filtered (3 kHz), digitized (15 kHz) and measured and plotted online, using the “LTP-program”-software. […]

[2] = Half-life and concentrations of substance in the rat / vitreal space of the eye; format: in vivo
Method: In a further experiment, rats are treated systemically (s.c.) and the experiment is repeated as above. The aim of this study is to verify whether systemic administration produces sufficiently high concentrations in the eye. Therefore, additionally, concentrations of substances of the instant invention are analyzed in the vitreal space of the eye. In animals treated systemically with experimental substances, there is a decrease in RGC apoptosis at least at one time point assessed and significant concentrations of the experimental substances are detected in the vitreal space of the eye.
The experiment is repeated as described above, except that substance is applied (s.c.) once 24 hrs before induction of glaucoma.
In another animal study with glaucomatous rats (procedure as described above, Morrison model) D-Trp-Aib (SEQ ID NO. 30) is applied 3 days prior to the induction of glaucoma (one single s.c injection). […] The explanation of this unexpected finding is that the pretreatment with D-Trp-Aib (SEQ ID NO. 30) leads to formation of non-toxic bulky Aβ aggregates (possibly micro non-toxic bulky Aβ aggregates) consisting of D-Trp-Aib (SEQ ID NO. 30) and physiologically Aβ that is ubiquitously prevailing at low concentrations. These non-toxic bulky Aβ aggregates function in isolating toxic Aβ after glaucoma induction even if the Aβ is released at higher concentrations.

| Molecule | inhibition of LTP [1] | detectability in the animal at the time point of glaucoma induction ([2]; 3 days after one single s.c injection) | half-life ([2]; in vivo, in the rat) |
| --- | --- | --- | --- |
| Aβ1-42: lyophilized β-amyloid Aβ1-42 peptide (Bachem / American Peptide Company) used as toxic stimulus | strong inhibition of LTP | – | – |
| CC(C)(NC(=O)[C@H](N)Cc1c[nH]c2ccccc12)C(=O)O [D-Trp-Aib] (H-[dW]-[Aib]-OH; N-terminus and C-terminus assumed) | – | no longer detectable | 1 to 2 h |
